Data from US7279321B2, “Methods for increasing the resistance of a host cell to aromatic carboxylic acids” (priority 2003, dated 2007).
Values after ≈ are worked out from the molar mass of the structure shown.

Tests used:
Assay type in all cases: cell-based
[1] = test system: E. coli strain MG1655; test: pHBA zone of growth inhibition on solidified Vogel-Bonner medium; conditions: sodium salt of pHBA 80 μmoles/disk, Vogel-Bonner with glucose
Method: This was tested by measuring the size of the zone of growth inhibition and scoring the degree of growth within the zones resulting from the sodium salt of pHBA (80 μmoles/disk) on solidified Vogel-Bonner medium with glucose as the carbon source (Table 5).

[2] = test system: E. coli strain DPD2459 (MG1655 + with pKK223-3 control plasmid); test: pHBA zone of growth inhibition, plasmid-carrying strains (Table 9)
Text: (§1) Plasmids pDEW668, pDEW673, pDEW675, and a control plasmid, pTrcHis2TOPO®/lacZ (Invitrogen), were moved by transformation to E. coli strain DPD2433, selecting for Ampicillin resistance, to generate strains DPD3317, DPD2455, DPD2457, and DPD3316, respectively.
(§2) The YhcP-Left primer was designed to contain a HindIII site and the YhcP-Right primer was designed to contain an EcoRI site for directional cloning of the resultant PCR product. […] The product of the PCR reaction was digested with restriction enzymes EcoRI and HindIII. The restriction digestion also contained pKK223-3 at an approximate molar ratio of 2:1 (insert:vector). Following incubation at 37° C. for 1.5 hours, the enzymes were inactivated by incubation at 65° C. for 20 minutes. The enzymes were subsequently removed by use a Qiaquick PCR purification kit (Qiagen) according to the vendor's instructions. The purified restriction products were ligated using T4 DNA ligase at 16° C. overnight. Following ligation, PstI and SmaI digestions were used to linearize the vector without insert DNA. The DNA from this selection digestion was used for transformation of E. coli strain JM105 (Amersham Pharmacia Biotech Inc., Piscataway, N.J.) using selection for Ampicillin resistance. Plasmid DNA from individual transformants was digested with EcoRI and HindIII. […] This plasmid and others were placed in various host strains by transformation and selection for Ampicillin resistance.

[3] = test system: E. coli strain DPD2463 (DPD2444 yhcP− with pDEW659 yhcP); test: as above
Text: as §1, §2

[4] = test system: E. coli strain DPD2465 (DPD2444 yhcP− with pDEW675 yhcRQ); test: as above
Text: as §1, §2

[5] = test system: E. coli strain DPD2466 (DPD2433 yhcS− with pKK223-3 control plasmid); test: as above
Text: as §1, §2

[6] = test system: E. coli strain DPD1818 (tolC); test: Growth in LB medium in the presence of pHBA, scored visually; also: key: ++++ indicates full turbidity; +++ indicates moderate, but visually less than full turbidity; + indicates very slight turbidity; − indicates no turbidity
Text: (§3) Strain DPD1818 carries a to/C::miniTn10 mutation in the MG1655 background. It was constructed by transduction of E. coli MG1655 using P1clr100 Cm phage grown on E. coli strain DE112 (Van Dyk et al. Appl. Environ. Microbiol. 60:1414-1420 (1994)), which carries a tolC::miniTn10 mutation, and selection for tetracycline resistance. Strain DPD2444, described above, carries a yhcP::TN<Kan> mutation. Strain DP2446 carries both the tolC::miniTn10 and yhcP::TN<Kan>. This strain was constructed using by P1clr100Cm mediated transduction of DE112 with phage grown on strain DPD2443 and selection for kanamycin resistance. Each of these mutant strains was grown overnight in LB medium at 37° C. […] The final volume in the wells of a 96-well microplate was 100 μl and the final dilution of the inoculum was 1 to 1000. This microplate was covered and incubated at 37° C. for 7 hours and then incubated at room temperature for 3 days. The growth in each well was then scored visually.

[7] = test system: E. coli strain DPD2446 (tolC yhcP); test: as above; also: key: ++++ indicates full turbidity; +++ indicates moderate, but visually less than full turbidity; + indicates very slight turbidity; − indicates no turbidity
Text: as §3

[8] = test system: E. coli strain MG1655 (+); test: as above
Text: as §3

[9] = test system: E. coli DPD1818 (tolC−) with pDEW668 (yhcRQP); test: pHBA MIC, 3:4 dilutions, Vogel-Bonner medium with 0.4% glucose; conditions: Escherichia coli, 21 h, read-out: pHBA MIC
Text: (§4) An additional experiment is consistent with the above conclusion. This experiment used E. coli strain MG1655 and strains derived from it, DPD1818 (described above in this example) with a to/C::miniTn10 mutation, […] (described in example 3) with a yhcS::TN<Kan> mutation, and DPD2435 that carries both the to/C::miniTn10 and yhcS::TN<Kan> mutations. The latter strain was constructed using P1clr100Cm mediated transduction of DE112 with phage grown on strain DPD2410 (described in Example 3) and selection for kanamycin resistance. These four strains were each transformed with plasmids pTrcHis2TOPO®/lacZ (Invitrogen) for a control and pDEW668 that expresses the yhcRQP operon (described in Example 2). […] Vogel-Bonner minimal medium with 0.4% glucose was used. […] The inoculum was 50 μl of a 1:500 dilution into Vogel-Bonner medium with 0.4% glucose as a carbon source of overnight cultures of each of the plasmid-containing strains grown in the same medium except with addition of 25 μg/ml Ampicillin.

[10] = test system: E. coli DPD1818 (tolC−) with pTrcHis2TOPO®/lacZ (control); test: as above; conditions: Escherichia coli, 21 h, read-out: pHBA MIC
Text: as §4

[11] = test system: E. coli DPD2433 (yhcS−) with pDEW668 (yhcRQP); test: as above; conditions: Escherichia coli, 21 h, read-out: pHBA MIC
Text: as §4

[12] = test system: E. coli DPD2433 (yhcS−) with pTrcHis2TOPO®/lacZ (control); test: as above; conditions: Escherichia coli, 21 h, read-out: pHBA MIC
Text: as §4

[13] = test system: E. coli DPD2435 (yhcS−, tolC−) with pDEW668 (yhcRQP); test: as above; conditions: Escherichia coli, 21 h, read-out: pHBA MIC
Text: as §4

[14] = test system: E. coli DPD2435 (yhcS−, tolC−) with pTrcHis2TOPO®/lacZ (control); test: as above; conditions: Escherichia coli, 21 h, read-out: pHBA MIC
Text: as §4

[15] = test system: E. coli MG1655 (+) with pDEW668 (yhcRQP); test: as above; conditions: Escherichia coli, MG1655, 21 h, read-out: pHBA MIC
Text: as §4

[16] = test system: E. coli MG1655 (+) with pTrcHis2TOPO®/lacZ (control); test: as above; conditions: Escherichia coli, read-out: pHBA MIC, control plasmid, 21 hours at 37° C., sodium salt, highest tested 100 mM
Text: as §4
For Growth in LB medium for 3 days at room temperature with pHBA in this document: key: ++++ indicates full turbidity; +++ indicates moderate, but visually less than full turbidity; + indicates very slight turbidity; − indicates no turbidity.

SMILES: O=C(O)c1ccc(O)cc1 [pHBA, para-hydroxybenzoic acid]
- degree of growth within the pHBA zone of growth inhibition [1]: turbid
- pHBA zone of growth inhibition, mm diameter ([1]; average of two experiments): 9.5 mm
- clarity of pHBA zone of growth inhibition [2]: turbid
- pHBA zone of growth inhibition, mm diameter ([2]; tested as for Table 8): 10.0 mm
- clarity of pHBA zone of growth inhibition [3]: turbid
- pHBA zone of growth inhibition, mm diameter ([3]; tested as for Table 8): 10.5 mm
- clarity of pHBA zone of growth inhibition [4]: clear
- pHBA zone of growth inhibition, mm diameter ([4]; tested as for Table 8): 21.8 mm
- clarity of pHBA zone of growth inhibition [5]: clear
- pHBA zone of growth inhibition, mm diameter ([5]; tested as for Table 8): 19.2 mm
- Growth in LB medium for 3 days at room temperature with pHBA ([6]; 25 mM pHBA sodium salt): ++++
- Growth in LB medium for 3 days at room temperature with pHBA ([6]; 50 mM pHBA sodium salt): ++++
- Growth in LB medium for 3 days at room temperature with pHBA ([6]; 100 mM pHBA sodium salt): +
- Growth in LB medium for 3 days at room temperature with pHBA ([6]; 200 mM pHBA sodium salt): −
- Growth in LB medium for 3 days at room temperature with pHBA ([7]; 25 mM pHBA sodium salt): ++++
- Growth in LB medium for 3 days at room temperature with pHBA ([7]; 50 mM pHBA sodium salt): +
- Growth in LB medium for 3 days at room temperature with pHBA ([7]; 100 mM pHBA sodium salt): −
- Growth in LB medium for 3 days at room temperature with pHBA ([7]; 200 mM pHBA sodium salt): −
- Growth in LB medium for 3 days at room temperature with pHBA ([8]; 25 mM pHBA sodium salt): ++++
- Growth in LB medium for 3 days at room temperature with pHBA ([8]; 50 mM pHBA sodium salt): ++++
- Growth in LB medium for 3 days at room temperature with pHBA ([8]; 100 mM pHBA sodium salt): +++
- Growth in LB medium for 3 days at room temperature with pHBA ([8]; 200 mM pHBA sodium salt): −
- MIC [9]: 100 mM (≈ 13.8 mg/mL)
- MIC [10]: 56 mM (≈ 7.73 mg/mL)
- MIC [11]: 100 mM (≈ 13.8 mg/mL)
- MIC [12]: 18 mM (≈ 2.49 mg/mL)
- MIC [13]: 100 mM (≈ 13.8 mg/mL)
- MIC [14]: 13 mM (≈ 1.8 mg/mL)
- MIC [15]: 100 mM (≈ 13.8 mg/mL)
- MIC [16]: 100 mM
